The text below walks through data of US12005051B2, “Topical roflumilast formulation having improved delivery and plasma half life” (ARCUTIS BIOTHERAPEUTICS, inc., priority 2017, dated 2024).

One may read the half-life as the time in which the quantity being followed falls by half.

Data set [1] in a line: optional elimination phase assessment at end of treatment with ARQ-151 cream in psoriasis. The format is in vivo, human. To be noted: for half-life: human, plasma. The protocol:
(§1) Blood samples were taken from all subjects at all sites as pre-dose on Day 1 (baseline) and Weeks 4 (Day 29) and 12 (Day 85). The analysis of the PK data collected was performed with a CFR 21 Part 11 compliant software package (Phoenix WinNonlin version 8.1) which is in full compliance with ICH-GCP. Samples from all subjects within the PK population were evaluated. Any subject or data excluded from the PK analysis were identified, along with the reason for exclusion in this PK report. BSA was averaged based on Baseline, Week 2, Week 4, Week 6 and Week 8 measured BSA values, the screening values, Week 12 and Week 16 values, and any other unscheduled visit values were excluded. Four subjects participated in an optional phase at the completion of the study to assess the elimination of roflumilast and the N-oxide at the end of treatment, however only three had quantifiable concentrations of roflumilast and the N-oxide. From the three subjects, the terminal rate constant (lambda z, λz) was determined by the slope of the regression line of the natural log transformed concentrations vs. time data. The terminal half-life (t½) was calculated as: In(2)/λz.
(§2) Concentration values that are reported BLQ (<0.100 for roflumilast and N-oxide) were reported as below limit of quantification (BLQ) in the concentration data listings and considered non-numerical. Nonnumerical values were ignored in the concentration by nominal time summary statistics. Summary statistics (i.e. N, arithmetic mean, SD, CV %, minimum, median, maximum, geometric mean, geometric SD, 95% confidence intervals for both the arithmetic mean and geometric mean) were calculated for plasma concentrations for each analyte, nominal day and dose strength. All concentration and descriptive statistic values were reported to three significant figures.

Details of data set [2]: species or system human. To be noted: in vivo. Here is the method: A parallel group, double blind, vehicle-controlled study was performed in which ARQ-151 cream 0.3% (Formulation 3 in Example 5) or ARQ-151 cream 0.15% (Formulation 7) or vehicle cream is applied QD for 84 days to subjects with chronic plaque psoriasis involving between 2 and 20% body surface area (BSA).
A total of approximately 300 subjects were enrolled at approximately 30 study sites in the United States and Canada. Subjects were adult (≥18 y/o) males or females with chronic plaque psoriasis. […] Subjects with an IGA of ‘Mild’ (2) were limited to 20% of total enrollment. Subjects with an IGA of ‘Severe’ (4) were limited to 15% of total enrollment. Subjects had at least 2% and no more than 20% Body Surface Area (BSA) of chronic plaque psoriasis. All psoriasis lesions on a subject were treated including the face, trunk, genitals/skin folds, or limbs (excluding the scalp). The palms and soles were treated but were not counted towards any measurements of efficacy (IGA, BSA, mPASI). For subjects with intertriginous area involvement, and with severity of the intertriginous area lesions at least ‘mild’ (IGA≥2) at Baseline, ‘I-IGA’ score was recorded at weeks 4, 6, 8 and 12. The same IGA used for the primary endpoint (whole body) was also used for ‘intertriginous area lesion IGA score’ (I-IGA), but only intertriginous areas were evaluated for I-IGA, not the rest of the body.
as §1, §2

The next data set can be described thus: clinical. The following applies: human, in vivo, po. Here is the method:
In addition to the consistent delivery of a suspended active ingredient from a topical product, successful treatment also depends on the elimination kinetics of the active ingredient. After a drug is absorbed into a patient's body, elimination begins thereby reducing the concentration over time. The half-life determines the length of time that the drug will be effective. […] Since the maximum plasma concentration (11.4 ng roflumilast per mL plasma) occurs for roflumilast about 1 hour after oral dosing, mean plasma concentration at the time of the first missed dose (1 day after the most recent dose) will be approximately 5.7 ng/mL (half the 11.4 ng/mL maximum plasma concentration). […] For oral roflumilast, use of a sustained release oral drug delivery system instead of the immediate release tablet studied by Huang, would be an example of extrinsic PK property modification to increase the adherence imperfection forgiveness of the product that would benefit the patient that missed one or more doses of roflumilast.

Data set [3] can be described thus: roflumilast crystal size by polarized light microscopy, dry and after six weeks storage in solvent blends. It is filed as physicochemical. To be noted: for crystal width: six weeks at room temperature.
The conditions of data set [4]: cited from earlier work.
For data set [5] the following is noted: cited from earlier work; for mean plasma half-life: multiple 0.375 mg doses, immediate release oral roflumilast.
Data set [6] can be described thus: dissolution of roflumilast in solvents and solvent:water blends at 25° C. It is filed as physicochemical. Here is the method: (§3) 0.0092 grams of roflumilast (Batch A14367P from Interquim S.A.) was weighed into a liquid scintillation vial. An equimolar blend of hexylene glycol (lot 1AC0818, Spectrum) and distilled water was added dropwise with mixing to the vial containing roflumilast to produce a suspension of roflumilast in excess of the solubility limit. An equimolar blend is 86.7% hexylene glycol and 13.3% water on a weight/weight percent basis. After mixing each addition of hexylene glycol:water blend, the tightly capped vial was returned to a water bath set at 25° C. It required 0.7962 grams of equimolar Hexylene Glycol:Water blend to completely dissolve the 0.0092 grams of roflumilast and give a 1.14% roflumilast in equimolar Hexylene Glycol:Water (wt/wt %) solution. 0.0064 grams of roflumilast was added to this sample (labeled 12-3) to form a finely dispersed suspension at 25° C. and the vial was then stored undisturbed at about 15-18° C., protected from the light for six weeks. A sample of the roflumilast crystals was removed from the vial, placed on a microscope slide (with coverslip) and then examined using polarized light microscopy using a 10× objective (FIG. 2, microscope sample 20-3).
0.0111 grams of roflumilast (Batch A14367P from Interquim S.A.) was weighed into a liquid scintillation vial. An equimolar blend of […] (Transcutol P, lot 146063, Gattefosse) and distilled water was added dropwise with mixing to the vial containing roflumilast to produce a suspension of roflumilast in excess of the solubility limit. An equimolar blend is 88.3% DEGEE and 11.7% water on a weight/weight percent basis. After mixing each addition of DEGEE:water blend, the tightly capped vial was returned to a water bath set at 25° C. It required 0.2477 grams of equimolar DEGEE:Water blend to completely dissolve the 0.0111 grams of roflumilast and give a 4.29% roflumilast in equimolar DEGEE:Water (wt/wt %) solution. This sample (labeled 13-1) was a solution of roflumilast at 25° C. and the vial was then stored undisturbed at about 15-18° C., protected from the light for six weeks. Roflumilast crystals precipitated due to the cooler storage temperature. A sample of the roflumilast crystals was removed from the vial, placed on a microscope slide (with coverslip) and then examined using polarized light microscopy using a 10× objective (FIG. 3, microscope sample 20-2).
as §3, with “4×” for “10×”, “4,” for “2,”
0.0180 grams of roflumilast (Batch A14367P from Interquim S.A.) was weighed into a liquid scintillation vial. Polyethylene glycol 400 (lot 1 DE0880, Spectrum) was added dropwise with mixing to the vial containing roflumilast to produce a suspension of roflumilast in excess of the solubility limit. After mixing each addition of polyethylene glycol 400, the tightly capped vial was returned to a water bath set at 25° C. […]

Like-named read-outs stand apart in the source and are kept apart here.

For `O=C(Nc1c(Cl)c[n+]([O-])cc1Cl)c1ccc(OC(F)F)c(OCC2CC2)c1` [roflumilast N-oxide], the Half-life values result in data set [1] (three subjects, end of treatment, topical ARQ-151) is listed as “around 3.6 days”. In data set [2], the “mean N-oxide pre-dose plasma concentration relative to parent pre-dose plasma concentration” value is 5.3-6.2 fold and the “mean pre-dose plasma concentration, Day 29 versus Day 85” value was at most 2 fold.

With `O=C(Nc1c(Cl)cncc1Cl)c1ccc(OC(F)F)c(OCC2CC2)c1` [roflumilast, N-(3,5-dichloropyrid-4-yl)-3-cyclopropylmethoxy-4-difluoromethoxybenzamid-e], the half-life in data set [1] (topical or ocular, three subjects, end of treatment, topical ARQ-151, read-out: Half-life values (converted)) is around 86.4 h; in data set [1] (after topical administration of a formulation with self-emulsifying wax blend of dicetyl phosphate and ceteth-10 phosphate and a solvent, read-out: plasma half-life of roflumilast) it was 81.6 to 88.8 h. Further, in the data set “clinical”, the concentration at 1 day was around 5.7 ng/mL. Besides, the concentration at 2 days in the data set “clinical” is around 2.8 ng/mL. Also, the concentration at 72 hours in the data set “clinical” is around 1.4 ng/mL. The crystal width in data set [3] (Sample 21-1, HG:NMP:Water (water mole fraction=1.2)) is listed as 0.02 mm; in data set [3] (Sample 21-2, equimolar ethanol:water) it was 0.02 mm; in data set [3] (Sample 21-3, equimolar PEG 400:water) it was 0.02 mm; in data set [3] (Sample 21-5, equimolar propylene glycol:water) it was 0.02 mm. Also, the “roflumilast crystalline growth, comparison” value in data set [3] (equimolar N-methyl pyrrolidone:water compared to 12:4:3 (wt/wt/wt) hexylene glycol:N-methyl pyrrolidone:water) was “Dramatically greater roflumilast crystalline growth”. In addition, the plasma half-life result in data set [4] (after intravenous administration in humans) was “about 15 hours”; in data set [4] (after oral administration), 17 to 30 h. Besides, the mean plasma half-life result in data set [5] was “about 1 day”; in data set [5] (mean of 12 subjects) it was 25.6 h. In data set [5] (multiple 0.375 mg oral doses), the maximum plasma concentration is given as 11.4 ng/mL. For the same molecule, the “time of maximum plasma concentration after oral dosing” value in data set [5] (multiple 0.375 mg oral doses) is given as “about 1 hour”. The “mean pre-dose plasma concentration, Day 29 versus Day 85” value in data set [2] (both, human) is recorded as at most 2 fold. The “increase of roflumilast plasma pre-dose concentration between the 2-fold increase in dose strength” value is listed as “about 1.6 fold” in data set [2] (both, human, 29 day) and “about 1.7 fold” in data set [2] (both, human, 85 day). In data set [6] (0.28% roflumilast, 88.97% propylene glycol, 10.75% water, initially clear solution, 25° C.), the “storage time until fine roflumilast crystals were observed” value is 105 min. In addition, the “roflumilast concentration in solution” value in data set [6] (dimethyl sulfoxide, 25° C.) is 28.5%. Also, the “roflumilast concentration at complete dissolution” value in data set [6] (equimolar DEGEE:Water, 25° C.) is 4.29 wt/wt %; in data set [6] (equimolar Hexylene Glycol:Water, 25° C.) it was 1.14 wt/wt %; in data set [6] (polyethylene glycol 400, 25° C.), 3.18%. In addition, the “roflumilast concentration completely dissolved” value in data set [6] (equimolar N-Methyl-2 pyrrolidone:water, 25° C.) came out at 22.85%.
